# Measurements taken from a melting point compilation (Tetko et al.).
row,Compound,melting point
1,CS(=O)(=O)NCCN=C=S,163 to 165 °C
2,N#Cc1ccccc1-c1ccc(CN2CCOCC2)cc1,71 to 73 °C
3,CC(C)(N)c1nnn[nH]1,251 to 253 °C
4,c1ccc2sc(NCC3CCCO3)nc2c1 (stereo unspecified),130 to 132 °C
5,O=C1CCCCc2c[nH]cc21,64 to 66 °C
6,Cc1nccc(C(=O)O)n1,206 to 208 °C
7,O=C(O)c1nccnc1-c1nc2ccccc2s1,188 to 190 °C
8,Nc1ccnn1-c1ccc(C(F)(F)F)cn1,89 to 91 °C
9,OCC1CSCCN1 (stereo unspecified),84 to 86 °C
10,O=C(O)c1cnn(-c2nccs2)c1,181 to 183 °C
11,c1ccc(CNc2cccnc2)nc1,50 to 52 °C
12,O=Cc1ccc(-c2ccc(C(F)(F)F)cc2)s1,124 to 126 °C
13,Cc1nncn1C1CC1,49 to 51 °C
14,CCOC(=O)c1cnc2nccn2c1,168 to 170 °C
15,Sc1ccc(Sc2ccc(S)cc2)cc1,112 to 114 °C
16,CN(C)c1nccc(Cl)n1,79 to 81 °C
17,Fc1ccc(C(c2ccc(F)cc2)N2CCNCC2)cc1,89 to 92 °C
18,O=C(O)C1=CCCS1,126 to 128 °C
19,CC(C)(O)c1cnc(Cl)nc1,98 to 100 °C
20,CCc1nc2sccc2c(=O)[nH]1,199 to 201 °C
21,NC(=O)Cn1ccc([N+](=O)[O-])n1,159 to 161 °C
22,CCNc1c(N)n(CC)c(=O)[nH]c1=O,210 to 212 °C

row,Compound,melting point
1,Cc1cc([N+](=O)[O-])n[nH]1,153 to 155 °C
2,CN(C(=O)c1ccc(N)cc1)C1CCCCC1,176 to 178 °C
3,Cc1cncc(C(=O)O)c1O,249 to 251 °C
4,NS(=O)(=O)CC1CCOCC1,85 to 87 °C
5,CC(=O)c1ccc(S(=O)(=O)N(C)CCCC(=O)O)cc1,80 to 82 °C
6,CCC(NC(=O)OC(C)(C)C)C(=O)O (stereo unspecified),88 to 90 °C
7,Cc1cc(-c2nnc(CCl)o2)c(C)o1,62 to 64 °C
8,Cc1ccn2c(N)c(-c3cccs3)nc2c1,223 to 225 °C
9,O=C1C(Br)CCCN1c1ccccc1 (stereo unspecified),80 to 82 °C
10,Cc1ncc(Br)n1C,92 to 94 °C
11,Oc1ccc(-c2nc3ccccc3[nH]2)cn1,238 to 242 °C
12,c1c[nH]c(CN2CCNCC2)n1,153 to 155 °C
13,Cc1nc(C(N)=O)c(N)n1C,159 to 161 °C
14,CCCn1c(=O)n(C)c(=O)c2c(S)nc(C(C)C)nc21,204 to 206 °C
15,CCOC(=O)c1c(C)c2c(=O)[nH]nc(S)n2c1C,218 to 220 °C
16,BrCc1ccc2c(c1)COC2,49 to 51 °C
17,CC(=O)C(N)=S,59 to 61 °C
18,CC(C)(C)OC(=O)N1CCc2ccccc2C1C(=O)O (stereo unspecified),142 to 144 °C
19,Cc1cc(C)n2ncc(C(=O)O)c2n1,176 to 178 °C
20,NC(=O)N1CCC(N)CC1,64 to 66 °C
21,OC[C@@H](O)CNCCC(F)(F)F,34 to 36 °C
22,Nc1cc(Cl)c(Cl)nc1N,149 to 151 °C

row,Compound,melting point
1,CC(C)n1nc(C(=O)O)c2ccccc2c1=O,142 to 144 °C
2,NS(=O)(=O)c1ccc(/C=C/C(=O)O)cc1,274 to 276 °C
3,COc1cc(C)c(S(=O)(=O)Cl)cc1OC,73 to 75 °C
4,N#CCn1cc(Br)cn1,60 to 62 °C
5,Cc1cc(C)cc(C(=O)N2CCNCC2)c1,125 to 127 °C
6,N#Cc1nc(C2CC2)oc1N1CCNCC1,99 to 101 °C
7,O=C(O)Cn1ccc([N+](=O)[O-])n1,172 to 174 °C
8,Nc1nc(-c2ccc3ccccc3c2)n[nH]1,205 to 207 °C
9,CS(=O)(=O)N1CCC(CN)CC1,63 to 65 °C
10,Cc1cn(C2CC(O)C(CO)O2)c(=O)[nH]c1=O (stereo unspecified),187 to 189 °C
11,Cc1nnc(-c2ccc(N)cc2)o1,195 to 197 °C
12,OC(C1CCCCN1)C(F)(F)F (stereo unspecified),94 to 96 °C
13,NNC(=S)N1CCOCC1,181 to 183 °C
14,O=Cc1cnn(CC(F)(F)F)c1,56 to 58 °C
15,CN1CCN(c2nccc(Cl)n2)CC1,94 to 96 °C
16,Nc1ccc(-n2cccn2)nc1,97 to 99 °C
17,N#Cc1cnn(-c2ccncc2)c1N,273 to 275 °C
18,c1cnc2c(c1)CCN2,79 to 81 °C
19,O=C(O)c1cc(-c2ccccc2)nc2c1cnn2Cc1ccco1,242 to 244 °C
20,CCn1nc(N)cc1C(F)(F)F,54 to 56 °C
21,O=S(=O)(Cl)c1c(Cl)ccc2c(Cl)ccnc12,155 to 157 °C

# Results, then the compound that gave them:
row,melting point,Compound
1,124 to 126 °C,O=C(Nc1cccc(-c2nnnn2C2CC2)c1)OCC(F)(F)F
2,183 to 185 °C,CC1(Cc2ccc3c(c2)OCO3)NC(=O)NC1=O (stereo unspecified)
3,103 to 105 °C,COc1cccc(-c2noc(SCC(=O)O)n2)c1
4,289 to 291 °C,COc1ccc2[nH]cc(C(=O)CC#N)c2c1
5,349 to 351 °C,Cc1cc(Br)cc2c(O)c(C#N)cnc12
6,143 to 145 °C,NS(=O)(=O)c1c(Cl)cccc1[N+](=O)[O-]
7,105 to 107 °C,CCC(=O)Nc1ccc(Cl)c(N)c1
8,203 to 205 °C,CCC(C)C(NC1=NS(=O)(=O)c2ccccc21)C(=O)O (stereo unspecified)
9,105 to 107 °C,CC(=O)c1ccc(N(C)C)cc1
10,182 to 184 °C,O=C(O)CSc1nnc(-c2ccc3ccccc3c2)o1
11,163 to 165 °C,Nc1nc(CCl)nc2ccccc12
12,277 to 279 °C,CNC(C(=O)O)c1ccc(F)cc1F (stereo unspecified)
13,199 to 201 °C,Cc1c[nH]c(=O)n1-c1ccccc1Cl
14,134 to 136 °C,O=C(O)CCCOc1ccc(S(=O)(=O)Cl)cc1Cl
15,204 to 206 °C,O=C(Nc1ccccc1F)Nc1cccc2c1CCCN2
16,66 to 68 °C,COc1ccc(C(=O)C(C)Br)c(OC)c1 (stereo unspecified)
17,210 to 212 °C,O=C(O)CSc1nnc(-c2ccccc2F)n1-c1ccccc1
18,159 to 161 °C,N#CCC(=O)Nc1ncccn1
19,177 to 179 °C,O=C(O)c1cc2ccccc2c(OCC2CC2)n1
20,158 to 160 °C,O=C(O)CCCNc1ccc([N+](=O)[O-])cc1
21,129 to 131 °C,Cc1ccc(-c2nc(C(=O)O)cs2)c(C)c1

row,melting point,Compound
1,177 to 179 °C,OCc1c(Cl)nc2ccccn12
2,99 to 101 °C,COc1ccc(C(=O)CBr)cc1Cl
3,119 to 121 °C,NC(C(=O)O)(c1cccc(C(F)(F)F)c1)C(F)(F)F (stereo unspecified)
4,172 to 174 °C,CCc1cc(=O)[nH]c(-c2ccncc2)n1
5,67 to 69 °C,OCCc1cc2cc(Br)ccc2o1
6,185 to 187 °C,NC(=O)Nc1cc(Cl)ccc1C(=O)O
7,145 to 147 °C,O=C(C=NO)Nc1ccc(F)cc1Cl
8,111 to 113 °C,CCC(NC(=O)OC(C)(C)C)c1ccccc1O (stereo unspecified)
9,66 to 68 °C,Nc1ccc(N2CCOCC2)c(S(=O)(=O)Nc2cc(Cl)ccc2Cl)c1
10,156 to 158 °C,CC1(O)C(=O)Nc2ccccc21 (stereo unspecified)
11,78 to 80 °C,N#CCc1cccc(C#N)c1
12,192 to 194 °C,Cc1cc(N)c(C(N)=O)cc1F
13,286 to 288 °C,O=C(O)c1c[nH]c2ccc(I)cc2c1=O
14,139 to 141 °C,Nc1ccc(Cl)cc1C(=O)N1CCCC1
15,129 to 131 °C,CC(Cl)C(=O)NC1CCOc2ccccc21 (stereo unspecified)
16,217 to 219 °C,O=C(O)c1cccc(NS(=O)(=O)c2cc(Cl)ccc2Cl)c1
17,155 to 157 °C,Nc1cccc(C(=O)N2CCC(CO)CC2)c1
18,309 to 311 °C,Cc1ccc(C(=O)O)cc1NC(=O)c1ccc(Br)cc1
19,139 to 141 °C,COC(=O)c1ccccc1CC(=O)O
20,61 to 63 °C,Cc1cccc(C(C)C(=O)O)c1 (stereo unspecified)
21,102 to 104 °C,Cc1cc(NS(C)(=O)=O)ccc1Br

row,melting point,Compound
1,159 to 161 °C,O=C(CCl)Nc1ccccc1Sc1ccccc1
2,99 to 101 °C,CC(=O)c1nnn(-c2ccccc2)c1C
3,127 to 129 °C,Cc1cc(C)cc(Nc2nnc(SC(C)C(=O)O)s2)c1 (stereo unspecified)
4,106 to 108 °C,CC(Sc1ccc(Cl)cc1)C(=O)O (stereo unspecified)
5,133 to 135 °C,O=C(CCl)Nc1ccc(Br)cc1F
6,198 to 200 °C,Nc1ccnc(C(=O)O)c1
7,90 to 92 °C,O=C(O)c1c(F)ccc(OC(F)F)c1F
8,146 to 148 °C,O=C(O)COc1ccc(Br)cc1Cl
9,146 to 148 °C,Cc1cc(C(=O)NC2CCCC2)ccc1N
10,179 to 181 °C,O=C1NC(=O)C(c2ccc(Cl)cc2Cl)N1 (stereo unspecified)
11,113 to 115 °C,O=C(O)CCNS(=O)(=O)c1ccc(Cl)c([N+](=O)[O-])c1
12,50 to 52 °C,Cc1cc(S(=O)(=O)Cl)ccc1OC(C)C
13,169 to 175 °C,Cc1cccc2cc(C(=O)O)[nH]c12
14,170 to 172 °C,Cc1nc(NCCc2ccccc2)sc1C(=O)O
15,206 to 208 °C,CSc1ncc(C(=O)O)n1-c1ccccc1
16,213 to 215 °C,O=C(O)c1cc(F)c(Br)c(S(=O)(=O)Cl)c1
17,102 to 104 °C,COc1cccc(C(C)=CC(=O)O)c1
18,97 to 99 °C,CN(CCO)c1ccc([N+](=O)[O-])cc1
19,174 to 176 °C,NC(=O)c1ccoc1
20,181 to 183 °C,Nc1ccc2c(c1)CCN2C(=O)c1cccnc1
21,258 to 260 °C,O=C(CCl)Nc1ccc(N2CCCC2=O)cc1

row,melting point,Compound
1,305 to 307 °C,O=C(O)c1cccc(NC(=O)c2ccc3[nH]cnc3c2)c1
2,125 to 127 °C,CNS(=O)(=O)c1cccc(N)c1C
3,105 to 107 °C,CCS(=O)(=O)Nc1cc(Br)ccc1OC
4,153 to 155 °C,O=C(O)c1ccc2c(c1)C(=O)N(CC1CCCO1)C2=O (stereo unspecified)
5,128 to 130 °C,Cc1cccn2cc(COc3ccc(F)cc3Cl)nc12
6,179 to 181 °C,O=C(Nc1ccccc1)c1ccc(CBr)cc1
7,180 to 182 °C,NNC(=O)Cc1cc[nH]n1
8,290 to 292 °C,CNC(C(=O)O)c1ccccc1C(F)(F)F (stereo unspecified)
9,253 to 255 °C,CS(=O)(=O)Cc1ccc(C(=O)O)cc1
10,84 to 86 °C,CCCCC(Br)C(=O)Nc1cc(C)on1 (stereo unspecified)
11,257 to 259 °C,COc1cc(C(=O)O)ccc1OCC(N)=O
12,107 to 109 °C,COC(=O)c1cnc(-c2ccccc2)s1
13,261 to 263 °C,CCOC(=O)c1nc2ccc(Br)cc2c(=O)[nH]1
14,183 to 185 °C,Cc1ccc2[nH]cc(C(=O)O)c2c1
15,62 to 64 °C,Cc1cc(OCCO)ccc1N
16,198 to 202 °C,CCOc1ccc(C(=O)O)cc1OC
17,194 to 196 °C,Nc1ccc(F)c(NC(=O)Cn2cncn2)c1
18,219 to 221 °C,N#CC1(c2ccc(C(=O)O)cc2)CC1
